Measurements taken from US20260022142A1, “MACROCYCLIC IMMUNOMODULATORS” (Bristol-Myers Squibb Company, priority 2022, published 2026).
Bridge positions count the residues as written; N and C are the ends. Square brackets hold non-standard residues; d marks the D form. Peptide text beside a SMILES is read from it. * marks the point of attachment. ξ: configuration not given here. Bip = N[C@@H](Cc1ccc(-c2ccccc2)cc1)C(=O)O; Phe(3-Me) = Cc1cccc(C[C@H](N)C(=O)O)c1; 4Pal = N[C@@H](Cc1ccncc1)C(=O)O; Cha = N[C@@H](CC1CCCCC1)C(=O)O; ξH = NC(Cc1c[nH]cn1)C(=O)O; dDab = NCC[C@@H](N)C(=O)O; Carboxymethyl = O=C(O)C*; Orn = NCCC[C@H](N)C(=O)O; Aun = NCCCCCCCCCCC(=O)O; Dab = NCC[C@H](N)C(=O)O; Dap = NC[C@H](N)C(=O)O; AEEA = NCCOCCOCC(=O)O

Molecular target: T1, PD-1/PD-L1 interaction (PE-labeled human PD-L1-Ig binding to Jurkat cell line over-expressing human PD-1) (Homo sapiens, UniProt Q15116)
T1 construct: expressed in transfected cells; host or cells: Jurkat
T1 sequence (Q15116 25-288): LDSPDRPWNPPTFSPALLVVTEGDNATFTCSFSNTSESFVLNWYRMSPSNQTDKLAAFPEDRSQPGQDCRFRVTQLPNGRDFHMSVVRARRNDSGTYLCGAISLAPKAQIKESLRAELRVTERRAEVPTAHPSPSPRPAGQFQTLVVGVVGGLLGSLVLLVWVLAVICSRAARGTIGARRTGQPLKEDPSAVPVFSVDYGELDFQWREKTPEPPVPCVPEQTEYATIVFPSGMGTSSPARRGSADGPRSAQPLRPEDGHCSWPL
Assay: Jurkat-PD-1 Cell Binding High-Content Screening Assay (CBA)
Type: cell-based
Conditions: Jurkat cell line over-expressing human PD-1; PE-labeled PD-L1-Ig 20 nM final; read-out: Jurkat hPD1-PDL1 IC50
Outline: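 Binding of fluorescent PD-L1-Ig (20 nM final) to Jurkat-PD-1 cells was measured by automated imaging after 1 h, following a 2 h compound pre-treatment at 37° C.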

Row | Structure (SMILES) | IC50
1 | CC(C)C[C@H]1NC(=O)[C@H](CCCN)NC(=O)[C@H](C(C)C)NC(=O)[C@H](Cc2ccc(-c3ccccc3)cc2)NC(=O)[C@H](C(C)C)NC(=O)[C@H](Cc2c[nH]c3ccccc23)NC(=O)[C@H](CC(=O)O)NC(=O)[C@H](Cc2ccc(OCC(=O)O)cc2)NC(=O)[C@H](CN)NC(=O)CSC[C@@H](C(=O)NCCOCCOCC(=O)N[C@H](Cc2cnc[nH]2)C(=O)NCCCCCCCCCCC(=O)O)NC(=O)[C@H]([C@@H](C)O)NC(=O)[C@H](C(C)C)NC(=O)[C@H](CC2CCCCC2)NC(=O)[C@H](Cc2cnc[nH]2)NC1=O [Compound 1135] ({CH2CO}-[Dap]Y(Carboxymethyl)DWV[Bip]V[Orn][dL]H[Cha]VTC[AEEA][dH][Aun]-OH; thioether N-14) | 0.0811 µM
2 | CC(C)C[C@H]1NC(=O)[C@H](CCCN)NC(=O)[C@H](C(C)C)NC(=O)[C@H](Cc2ccc(-c3ccccc3)cc2)NC(=O)[C@H](C(C)C)NC(=O)[C@H](Cc2c[nH]c3ccccc23)NC(=O)[C@H](CC(=O)O)NC(=O)[C@H](Cc2ccc(OCC(=O)O)cc2)NC(=O)[C@H](CN)NC(=O)CSC[C@@H](C(=O)NCCOCCOCC(=O)N[C@H](CC(N)=O)C(=O)NCCCCCCCCCCC(=O)O)NC(=O)[C@H]([C@@H](C)O)NC(=O)[C@H](C(C)C)NC(=O)[C@H](CC2CCCCC2)NC(=O)[C@H](Cc2cnc[nH]2)NC1=O [Compound 1136] ({CH2CO}-[Dap]Y(Carboxymethyl)DWV[Bip]V[Orn][dL]H[Cha]VTC[AEEA][dN][Aun]-OH; thioether N-14) | 0.0337 µM
3 | CC(C)C[C@H]1NC(=O)[C@H](CCCN)NC(=O)[C@H](C(C)C)NC(=O)[C@H](Cc2ccc(-c3ccccc3)cc2)NC(=O)[C@H](C(C)C)NC(=O)[C@H](Cc2c[nH]c3ccccc23)NC(=O)[C@H](CC(=O)O)NC(=O)[C@H](Cc2ccc(OCC(=O)O)cc2)NC(=O)[C@H](CN)NC(=O)CSC[C@@H](C(=O)NCCOCCOCC(=O)NC(Cc2cnc[nH]2)C(=O)NCCCCCCCCCCC(=O)O)NC(=O)[C@H]([C@@H](C)O)NC(=O)[C@H](C(C)C)NC(=O)[C@H](CC2CCCCC2)NC(=O)[C@H](Cc2cnc[nH]2)NC1=O (stereo partly drawn) [Compound 1137] ({CH2CO}-[Dap]Y(Carboxymethyl)DWV[Bip]V[Orn][dL]H[Cha]VTC[AEEA][ξH][Aun]-OH; thioether N-14) | 0.0186 µM
4 | Cc1cccc(C[C@@H]2NC(=O)[C@H](CC(=O)O)NC(=O)[C@H](Cc3ccc(OCC(=O)O)cc3)NC(=O)[C@H](Cc3ccc(OCC(=O)O)cc3)NC(=O)CSC[C@@H](C(=O)NCC(=O)N[C@@H](CCC(=O)O)C(=O)NCC(=O)NCCCCCCCCCCC(=O)O)NC(=O)[C@H](CO)NC(=O)[C@H](C(C)C)NC(=O)[C@H](CC(C)C)NC(=O)[C@H](CCN)NC(=O)[C@@H](CC(C)C)NC(=O)[C@H](CCCN)NC(=O)[C@H](C(C)C)NC(=O)[C@H](Cc3ccc(-c4ccccc4)cc3)NC(=O)[C@H](CC(C)C)NC2=O)c1 [Compound 1138] ({CH2CO}-Y(Carboxymethyl)Y(Carboxymethyl)D[Phe(3-Me)]L[Bip]V[Orn][dL][Dab]LVSCGEG[Aun]-OH; thioether N-14) | 0.0189 µM
5 | Cc1cccc(C[C@@H]2NC(=O)[C@H](CC(=O)O)NC(=O)[C@H](Cc3ccc(OCC(=O)O)cc3)NC(=O)[C@H](Cc3ccc(OCC(=O)O)cc3)NC(=O)CSC[C@@H](C(=O)NCC(=O)N[C@@H](CCC(=O)O)C(=O)NCCCCCCCCCCC(=O)O)NC(=O)[C@H](CO)NC(=O)[C@H](C(C)C)NC(=O)[C@H](CC(C)C)NC(=O)[C@H](CCN)NC(=O)[C@@H](CC(C)C)NC(=O)[C@H](CCCN)NC(=O)[C@H](C(C)C)NC(=O)[C@H](Cc3ccc(-c4ccccc4)cc3)NC(=O)[C@H](CC(C)C)NC2=O)c1 [Compound 1139] ({CH2CO}-Y(Carboxymethyl)Y(Carboxymethyl)D[Phe(3-Me)]L[Bip]V[Orn][dL][Dab]LVSCGE[Aun]-OH; thioether N-14) | 0.0113 µM
6 | Cc1cccc(C[C@@H]2NC(=O)[C@H](CC(=O)O)NC(=O)[C@H](Cc3ccc(OCC(=O)O)cc3)NC(=O)[C@H](Cc3ccc(OCC(=O)O)cc3)NC(=O)CSC[C@@H](C(=O)N[C@@H](CCCN)C(=O)NCCCCCCCCCCC(=O)O)NC(=O)[C@H](CO)NC(=O)[C@H](C(C)C)NC(=O)[C@H](CC(C)C)NC(=O)[C@H](CCN)NC(=O)[C@@H](CC(C)C)NC(=O)[C@H](CCCN)NC(=O)[C@H](C(C)C)NC(=O)[C@H](Cc3ccc(-c4ccccc4)cc3)NC(=O)[C@@H](CC(C)C)NC2=O)c1 [Compound 1141] ({CH2CO}-Y(Carboxymethyl)Y(Carboxymethyl)D[Phe(3-Me)][dL][Bip]V[Orn][dL][Dab]LVSC[Orn][Aun]-OH; thioether N-14) | 0.041 µM
7 | Cc1cccc(C[C@@H]2NC(=O)[C@H](CC(=O)O)NC(=O)[C@H](Cc3ccc(OCC(=O)O)cc3)NC(=O)[C@H](Cc3ccc(OCC(=O)O)cc3)NC(=O)CSC[C@@H](C(=O)N[C@@H](CCCCN)C(=O)NCCCCCCCCCCC(=O)O)NC(=O)[C@H](CO)NC(=O)[C@H](C(C)C)NC(=O)[C@H](CC(C)C)NC(=O)[C@H](CCN)NC(=O)[C@@H](CC(C)C)NC(=O)[C@H](CCCN)NC(=O)[C@H](C(C)C)NC(=O)[C@H](Cc3ccc(-c4ccccc4)cc3)NC(=O)[C@@H](CC(C)C)NC2=O)c1 [Compound 1142] ({CH2CO}-Y(Carboxymethyl)Y(Carboxymethyl)D[Phe(3-Me)][dL][Bip]V[Orn][dL][Dab]LVSCK[Aun]-OH; thioether N-14) | 0.0549 µM
8 | Cc1cccc(C[C@@H]2NC(=O)[C@H](CC(=O)O)NC(=O)[C@H](Cc3ccc(OCC(=O)O)cc3)NC(=O)[C@H](Cc3ccc(OCC(=O)O)cc3)NC(=O)CSC[C@@H](C(=O)N[C@H](CCN)C(=O)NCCCCCCCCCCC(=O)O)NC(=O)[C@H](CO)NC(=O)[C@H](C(C)C)NC(=O)[C@H](CC(C)C)NC(=O)[C@H](CCN)NC(=O)[C@@H](CC(C)C)NC(=O)[C@H](CCCN)NC(=O)[C@H](C(C)C)NC(=O)[C@H](Cc3ccc(-c4ccccc4)cc3)NC(=O)[C@@H](CC(C)C)NC2=O)c1 [Compound 1145] ({CH2CO}-Y(Carboxymethyl)Y(Carboxymethyl)D[Phe(3-Me)][dL][Bip]V[Orn][dL][Dab]LVSC[dDab][Aun]-OH; thioether N-14) | 0.0261 µM
9 | Cc1cccc(C[C@@H]2NC(=O)[C@H](CC(=O)O)NC(=O)[C@H](Cc3ccc(OCC(=O)O)cc3)NC(=O)[C@H](Cc3ccc(OCC(=O)O)cc3)NC(=O)CSC[C@@H](C(=O)NCCOCCOCC(=O)NCCCCCCCCCCC(=O)O)NC(=O)[C@H](CO)NC(=O)[C@H](C(C)C)NC(=O)[C@H](CC(C)C)NC(=O)[C@H](CCN)NC(=O)[C@@H](CC(C)C)NC(=O)[C@H](CCCN)NC(=O)[C@H](C(C)C)NC(=O)[C@H](Cc3ccc(-c4ccccc4)cc3)NC(=O)[C@@H](CC(C)C)NC2=O)c1 [Compound 1149] ({CH2CO}-Y(Carboxymethyl)Y(Carboxymethyl)D[Phe(3-Me)][dL][Bip]V[Orn][dL][Dab]LVSC[AEEA][Aun]-OH; thioether N-14) | 0.0197 µM
10 | CC[C@H](C)[C@@H]1NC(=O)[C@H](Cc2ccc(-c3ccccc3)cc2)NC(=O)[C@H](C(C)C)NC(=O)[C@H](Cc2c[nH]c3ccccc23)NC(=O)[C@H](CC(=O)O)NC(=O)[C@H](Cc2ccc(OCC(=O)O)cc2)NC(=O)[C@H](Cc2ccncc2)NC(=O)CSC[C@@H](C(=O)NCCOCCOCC(=O)NCCCCCCCCCCC(=O)O)NC(=O)[C@H]([C@@H](C)O)NC(=O)[C@H](C(C)C)NC(=O)[C@H](CC(C)C)NC(=O)[C@H](CCN)NC(=O)[C@@H](CC(C)C)NC(=O)[C@H](CCCN)NC1=O [Compound 1150] ({CH2CO}-[4Pal]Y(Carboxymethyl)DWV[Bip]I[Orn][dL][Dab]LVTC[AEEA][Aun]-OH; thioether N-14) | 0.0335 µM
11 | CC[C@H](C)[C@@H]1NC(=O)[C@H](Cc2ccc(-c3ccccc3)cc2)NC(=O)[C@H](C(C)C)NC(=O)[C@H](Cc2c[nH]c3ccccc23)NC(=O)[C@H](CC(=O)O)NC(=O)[C@H](Cc2ccc(OCC(=O)O)cc2)NC(=O)[C@H](Cc2ccncc2)NC(=O)CSC[C@@H](C(=O)N[C@@H](CCCN)C(=O)NCCOCCOCC(=O)NCCCCCCCCCCC(=O)O)NC(=O)[C@H]([C@@H](C)O)NC(=O)[C@H](C(C)C)NC(=O)[C@H](CC(C)C)NC(=O)[C@H](CCN)NC(=O)[C@@H](CC(C)C)NC(=O)[C@H](CCCN)NC1=O [Compound 1159] ({CH2CO}-[4Pal]Y(Carboxymethyl)DWV[Bip]I[Orn][dL][Dab]LVTC[Orn][AEEA][Aun]-OH; thioether N-14) | 0.0334 µM
12 | CC[C@H](C)[C@@H]1NC(=O)[C@H](Cc2ccc(-c3ccccc3)cc2)NC(=O)[C@H](C(C)C)NC(=O)[C@H](Cc2c[nH]c3ccccc23)NC(=O)[C@H](CC(=O)O)NC(=O)[C@H](Cc2ccc(OCC(=O)O)cc2)NC(=O)[C@H](Cc2ccncc2)NC(=O)CSC[C@@H](C(=O)N[C@@H](CCCCN)C(=O)NCCOCCOCC(=O)NCCCCCCCCCCC(=O)O)NC(=O)[C@H]([C@@H](C)O)NC(=O)[C@H](C(C)C)NC(=O)[C@H](CC(C)C)NC(=O)[C@H](CCN)NC(=O)[C@@H](CC(C)C)NC(=O)[C@H](CCCN)NC1=O [Compound 1160] ({CH2CO}-[4Pal]Y(Carboxymethyl)DWV[Bip]I[Orn][dL][Dab]LVTCK[AEEA][Aun]-OH; thioether N-14) | 0.021 µM
13 | CC[C@H](C)[C@@H]1NC(=O)[C@H](Cc2ccc(-c3ccccc3)cc2)NC(=O)[C@H](C(C)C)NC(=O)[C@H](Cc2c[nH]c3ccccc23)NC(=O)[C@H](CC(=O)O)NC(=O)[C@H](Cc2ccc(OCC(=O)O)cc2)NC(=O)[C@H](Cc2ccncc2)NC(=O)CSC[C@@H](C(=O)N[C@@H](CCCNC(=N)N)C(=O)NCCOCCOCC(=O)NCCCCCCCCCCC(=O)O)NC(=O)[C@H]([C@@H](C)O)NC(=O)[C@H](C(C)C)NC(=O)[C@H](CC(C)C)NC(=O)[C@H](CCN)NC(=O)[C@@H](CC(C)C)NC(=O)[C@H](CCCN)NC1=O [Compound 1161] ({CH2CO}-[4Pal]Y(Carboxymethyl)DWV[Bip]I[Orn][dL][Dab]LVTCR[AEEA][Aun]-OH; thioether N-14) | 0.0253 µM
